# Laboratory results reported in patent publication US9695133B2, “Quinazolinone-based oncogenic-RAS-selective lethal compounds and their use” (THE TRUSTEES OF COLUMBIA UNIVERSITY IN THE CITY OF NEW YORK, priority 2012, dated 2017).
# System: HT-1080 cells
# Assay: Metabolite profiling (LC-MS/MS) upon erastin treatment
# Type: cell-based, human
# Settings: 5 μg/mL erastin 5 h
# Experimental: 2 million HT-1080 cells were seeded in 10 cm culture dishes. […] 4 mL of cold 80% methanol was added to the cell monolayer to extract polar metabolites using a cell scraper. The cell lysate/methanol mixture was transferred to a 15 mL tube and centrifuged at 2,000×g at 4° C. for 10 minutes to pellet debris and proteins. The supernatant was transferred to a new tube and stored at −80° C. for liquid chromatography-mass spectrometry/mass spectrometry (LC-MS/MS) analysis. For lipid extract preparation, 3 mL of cold 100% isopropanol was added to the cell monolayer to scrape out cells. The resulting cell lysate/isopropanol mixture was transferred to a new 15 mL tube and centrifuged at 2,000×g at 4° C. for 10 minutes. The cleared supernatant was transferred to a new tube and stored at −20° C. for LC-MS/MS analysis.
# The metabolite extract was subjected to LC-MS/MS analysis to determine the quantity of each metabolite in each sample.
smiles,measurement,value
CCOc1ccccc1-n1c(C(C)N2CCN(C(=O)COc3ccc(Cl)cc3)CC2)nc2ccccc2c1=O (stereo not drawn) [erastin],guanosine Erastin/DMSO,4.51
same,guanosine log2 (Erastin/DMSO),2.173
same,hippurate Erastin/DMSO,1.005
same,hippurate log2 (Erastin/DMSO),0.007657
same,histamine Erastin/DMSO,0.9526
same,histamine log2 (Erastin/DMSO),−0.07002
same,histidine Erastin/DMSO,0.9779
same,histidine log2 (Erastin/DMSO),−0.03228
same,hydroxyphenylacetate Erastin/DMSO,1.024
same,hydroxyphenylacetate log2 (Erastin/DMSO),0.03431
same,hypoxanthine Erastin/DMSO,0.9819
same,hypoxanthine log2 (Erastin/DMSO),−0.02629
same,indoxylsulfate Erastin/DMSO,0.7913
same,indoxylsulfate log2 (Erastin/DMSO),−0.3377
same,inosine Erastin/DMSO,1.867
same,inosine log2 (Erastin/DMSO),0.9005
same,isocitrate Erastin/DMSO,1.051
same,isocitrate log2 (Erastin/DMSO),0.07189
same,isoleucine Erastin/DMSO,0.9526
same,isoleucine log2 (Erastin/DMSO),−0.07
same,isomer_of_erythrose-4-phosphate Erastin/DMSO,0.5887
same,isomer_of_erythrose-4-phosphate log2 (Erastin/DMSO),−0.7644
same,kynurenic acid Erastin/DMSO,0.8322
same,kynurenic acid log2 (Erastin/DMSO),−0.265
same,kynurenine Erastin/DMSO,1.04
same,kynurenine log2 (Erastin/DMSO),0.05699
same,lactate Erastin/DMSO,0.884
same,lactate log2 (Erastin/DMSO),−0.1779
same,leucine Erastin/DMSO,0.9497
same,leucine log2 (Erastin/DMSO),−0.07444
same,lysine Erastin/DMSO,0.9654
same,lysine log2 (Erastin/DMSO),−0.05081
same,malate Erastin/DMSO,1.143
same,malate log2 (Erastin/DMSO),0.1934
same,maleate/3-methyl-2-oxobutanoate Erastin/DMSO,0.9484
same,maleate/3-methyl-2-oxobutanoate log2 (Erastin/DMSO),−0.07647
same,malonate Erastin/DMSO,1.025
same,malonate log2 (Erastin/DMSO),0.03595
same,methionine Erastin/DMSO,0.9702
same,methionine log2 (Erastin/DMSO),−0.04361
same,niacinamide Erastin/DMSO,0.9289
same,niacinamide log2 (Erastin/DMSO),−0.1065
same,nicotinate Erastin/DMSO,1.085
same,nicotinate log2 (Erastin/DMSO),0.1179
same,ornithine Erastin/DMSO,0.9482
same,ornithine log2 (Erastin/DMSO),−0.07676
same,orotate Erastin/DMSO,1.138
same,orotate log2 (Erastin/DMSO),0.1864
same,oxalate Erastin/DMSO,1.019
same,oxalate log2 (Erastin/DMSO),0.02659
same,pantothenate Erastin/DMSO,1.194
same,pantothenate log2 (Erastin/DMSO),0.2564
same,phenylacetylglycine Erastin/DMSO,1.135
same,phenylacetylglycine log2 (Erastin/DMSO),0.1828
same,phenylalanine Erastin/DMSO,1.005
same,phenylalanine log2 (Erastin/DMSO),0.007013
same,phosphocholine Erastin/DMSO,0.5252
same,phosphocholine log2 (Erastin/DMSO),−0.9291
same,phosphocreatine Erastin/DMSO,1.173
same,phosphocreatine log2 (Erastin/DMSO),0.2302
same,phosphoglycerate Erastin/DMSO,0.9848
same,phosphoglycerate log2 (Erastin/DMSO),−0.02206
same,phosphotyrosine Erastin/DMSO,0.6533
same,phosphotyrosine log2 (Erastin/DMSO),−0.6143
same,pimelate/3-methyladipate Erastin/DMSO,1.021
same,pimelate/3-methyladipate log2 (Erastin/DMSO),0.03006
same,proline Erastin/DMSO,1.086
same,proline log2 (Erastin/DMSO),0.1195
same,proprionate Erastin/DMSO,1.092
same,proprionate log2 (Erastin/DMSO),0.1269
same,pyruvate Erastin/DMSO,1.283
same,pyruvate log2 (Erastin/DMSO),0.3592
same,quinolinate Erastin/DMSO,1.015
same,quinolinate log2 (Erastin/DMSO),0.02178
same,ribose-5-P Erastin/DMSO,1.113
same,ribose-5-P log2 (Erastin/DMSO),0.155
same,ribulose-5-P Erastin/DMSO,1.051
same,ribulose-5-P log2 (Erastin/DMSO),0.07112
same,salicylurate Erastin/DMSO,0.9637
same,salicylurate log2 (Erastin/DMSO),−0.05339
same,sebacate Erastin/DMSO,0.9419
same,sebacate log2 (Erastin/DMSO),−0.08641
same,serine Erastin/DMSO,1.053
same,serine log2 (Erastin/DMSO),0.07514
same,serotonin Erastin/DMSO,0.7924
same,serotonin log2 (Erastin/DMSO),−0.3357
same,sorbitol Erastin/DMSO,0.9709
same,sorbitol log2 (Erastin/DMSO),−0.04258
same,suberate Erastin/DMSO,1.003
same,suberate log2 (Erastin/DMSO),0.004641
same,succinate/methylmalonate Erastin/DMSO,1.008
same,succinate/methylmalonate log2 (Erastin/DMSO),0.01178
same,sucrose Erastin/DMSO,1.408
same,sucrose log2 (Erastin/DMSO),0.4939
same,taurine Erastin/DMSO,0.8259
same,taurine log2 (Erastin/DMSO),−0.276
same,taurochenodeoxycholate Erastin/DMSO,1.181
same,taurochenodeoxycholate log2 (Erastin/DMSO),0.2399
same,taurocholate Erastin/DMSO,1.108
same,taurocholate log2 (Erastin/DMSO),0.1484
same,taurodeoxycholate Erastin/DMSO,1.168
same,taurodeoxycholate log2 (Erastin/DMSO),0.2237
same,taurolithocholate Erastin/DMSO,1.093
same,taurolithocholate log2 (Erastin/DMSO),0.1287
same,thiamine Erastin/DMSO,0.9385
same,thiamine log2 (Erastin/DMSO),−0.09157
same,threonine Erastin/DMSO,0.9924
same,threonine log2 (Erastin/DMSO),−0.01095
same,thymidine Erastin/DMSO,1.402
same,thymidine log2 (Erastin/DMSO),0.4879
same,thymine Erastin/DMSO,1.257
same,thymine log2 (Erastin/DMSO),0.3302
same,thyroxine Erastin/DMSO,0.8859
same,thyroxine log2 (Erastin/DMSO),−0.1748
same,triiodothyronine Erastin/DMSO,0.8066
same,triiodothyronine log2 (Erastin/DMSO),−0.31
same,trimethylamine-N-oxide Erastin/DMSO,1.222
same,trimethylamine-N-oxide log2 (Erastin/DMSO),0.2895
same,tryptophan Erastin/DMSO,0.9911
same,tryptophan log2 (Erastin/DMSO),−0.01285
same,tyrosine Erastin/DMSO,0.9821
same,tyrosine log2 (Erastin/DMSO),−0.02607
same,urate Erastin/DMSO,1.018
same,urate log2 (Erastin/DMSO),0.0257
same,uridine Erastin/DMSO,4.369
same,uridine log2 (Erastin/DMSO),2.127
same,valine Erastin/DMSO,0.9822
same,valine log2 (Erastin/DMSO),−0.02594
same,xanthine Erastin/DMSO,1.027
same,xanthine log2 (Erastin/DMSO),0.03817
same,xanthosine Erastin/DMSO,0.98
same,xanthosine log2 (Erastin/DMSO),−0.02909
